A short description of data set [1]: acute toxicity in the mouse. Particulars: in vivo, male and female mouse. An excerpt:
(§1) Thanks to their pharmacological properties and to the absence of toxicity, the compounds of formula I and their possible pharmaceutically acceptable salts may be used as drugs in the treatment of diseases of the respiratory tract.

For a further data set, the system named is 4% mucin suspension. Kind of data set: mucolithic activity "in vitro" with a 4% mucin suspension (viscosity reduction). It counts as biochemical. The note with it: molar concentration 0,012 M. An excerpt:
The 3-mercapto-2-oxo-1-pyrrolidinyl acetic acid (V) and its derivatives are endowed with interesting phamacological properties; particularly they are endowed with a relevant mucolithic, expectorant and anti-cough activity and moreover show a very low toxicity.

The test system of data set [2] is fluid of the respiratory tract. Kind of data set: expectorant activity: fluorescein elimination in the fluid of the respiratory tract. It counts as in vivo. Particulars: in comparison to the controls; dose 1 mM/kg/os.
Data set [3] in a line: acute toxicity in the rat. The note with it: in vivo, male and female rat.
Source text: as §1

[4] abbreviates: tested after a suitable hydrolysis of the thioester.

As a reminder, the LD50 is the dose expected to kill half of the subjects tested. Take `O=C(O)CN1CCC(S)C1=O` (stereo not drawn) [V, 3-mercapto-2-oxo-1-pyrrolidinyl acetic acid]: the LD50 was > 2000 mg/kg in data set [1] (ip), > 3000 mg/kg in data set [1] (oral route), > 1500 mg/kg in data set [3] (ip) and > 5000 mg/kg in data set [3] (oral route). In the data set on 4% mucin suspension, this molecule registered a viscosity reduction of 20.95%. In data set [2], the “increases of escretion of the colouring matter” value (“increases” below) was determined as 52.92%.

As for `O=C(O)CN1CCC(SC(=O)c2ccccc2)C1=O` (stereo not drawn) [VII, 3-benzoylthio-2-oxo-l-pyrrolidinyl acetic acid], in the data set with 4% mucin suspension (setting [4]), the viscosity reduction came to 16.13%.

For the molecule `CC(=O)N[C@@H](CS)C(=O)O` [N-acetyl-L-cysteine, reference compound], the viscosity reduction in the data set with 4% mucin suspension stood at 12.69%. The “increases” value in data set [2] is listed as 29.63%.

As to `O=C(O)CN1CCC(SC(=O)c2cccs2)C1=O` (stereo not drawn) [VI, 3-(2-thenoylthio)-2-oxo-1-pyrrolidinyl acetic acid], the 50% lethal dose (LD50) in data set [1] (ip) is > 2000 mg/kg; in data set [1] (oral route) it was > 3000 mg/kg; in data set [3] (ip) it was > 1500 mg/kg; in data set [3] (oral route), > 5000 mg/kg. Further, the viscosity reduction in the data set on 4% mucin suspension (setting [4]) was 18.22%. In addition, the “increases” value in data set [2] stood at 54.26%.

(Values after patent EP0184861A1, “Derivatives of the 3-mercapto-2-oxo-1-pyrrolidinacetic acid, process for their preparation and pharmaceutical compositions containing them” (PROTER S.p.A., priority 1984, dated 1986).)
